Laboratory results published in article PMC5909127, “Optimization of a “bump-and-hole” approach to allele-selective BET bromodomain inhibition” (Chemical Science, 2018).

What was measured:
[1] = target: BRD3 BD1 L/V (Homo sapiens, UniProt Q15059, L70V); assay: ITC; type: binding
[2] = target: T1, BRD4 BD1 WT (Homo sapiens, UniProt O60885); assay: ITC; type: binding
[3] = target: T2, BRD4 BD1 L/V (Homo sapiens, UniProt O60885, L94V); assay: competitive AlphaLISA; type: binding; settings: for ΔpIC50 BRD4 BD1: L/V minus WT
[4] = target: BRD4 BD2 WT (Homo sapiens, UniProt O60885); assay: ITC; type: binding
[5] = target: T1, BRD4 BD1 WT; assay: competitive AlphaLISA; type: binding
[6] = target: BRD2 BD1 L/V (Homo sapiens, UniProt P25440, L110V); assay: ITC; type: binding
[7] = target: BRD3 BD1 WT (Homo sapiens, UniProt Q15059); assay: ITC; type: binding
[8] = tested on: L/V somatic BET bromodomains; assay: ITC
[9] = target: BRD3 BD2 L/V (Homo sapiens, UniProt Q15059, L345V); assay: ITC; type: binding
[10] = target: BRD4 BD2 L/V (Homo sapiens, UniProt O60885, L387V); assay: ITC; type: binding
[11] = target: T2, BRD4 BD1 L/V; assay: ITC; type: binding; settings: for Kd: Kd BRD4 BD1 L/V
[12] = target: BRD2 BD1 WT (Homo sapiens, UniProt P25440); assay: ITC; type: binding
[13] = target: BRD2 BD2 WT (Homo sapiens, UniProt P25440); assay: ITC; type: binding
[14] = target: BRD2 BD2 L/V (Homo sapiens, UniProt P25440, L383V); assay: ITC; type: binding
[15] = target: T3, BRD3 BD2 WT (Homo sapiens, UniProt Q15059); assay: ITC; type: binding
[16] = target: T3, BRD3 BD2 WT; assay: competitive AlphaLISA; type: binding
[17] = tested on: GFP-BRD4 L/V constructs with NF-κB-RE/luc2P reporter in HEK293T cells; assay: NF-κB luciferase assay; type: cell-based, human; settings: 1 µM, inhibiting either individual BD of BRD4
Description: To provide additional functional insights into the individual roles of BD1 vs. BD2 beyond chromatin binding, a luciferase assay was developed to monitor the expression of NF-κB target genes, inspired by work of Zou et al.[45] […] This luciferase induction was maintained with L/V mutations (but not L/A), consistent again with more WT-like functionality of L/V compared to L/A (Fig. 9A).
12 – NF-κB Luciferase Assay
Luciferase experiments were performed in human HEK293T cells seeded in a 24-well plate at 100 000 cells in […]
pBABE NF-κB-RE/luc2P reporter plasmid. Cells were transfected using Lipofectamine™ LTX (Invitrogen) with PLUS™ reagent, with each well receiving 0.5 µg of each plasmid, 2.5 µl LTX and 0.5 µl PLUS reagent. The next day cells were treated with compounds, giving a final concentration of 1 µM compound and 0.01% DMSO. 6 hours later cells were washed with PBS, lysed with passive lysis buffer (Promega) and stored at -20°C.
Luciferase activity was measured suing the Promega luciferase assay. In a black 384-well plate 3µl of clarified lysate was mixed with 15µl luciferase assay reagent and after 15 minutes luminescence was measured in a Pherastar FS. […]
NMR spectra were recorded on a Bruker 500 Ultrashield or a Bruker Ascend 400. […] High Resolution Mass Spectra (HRMS) were recorded on a Bruker micrOTOF. […]

[18] = pIC50 BRD4 BD1 L/V, separated enantiomers test, total compound concentration
[19] = pIC50 BRD4 BD1 WT, separated enantiomers test, total compound concentration
[20] = ITC, total compound concentration
[21] = ITC of separated enantiomers and racemates, total compound concentration

Chain of BRD3 BD1 L/V (Q15059 24-144 L70V limits assumed): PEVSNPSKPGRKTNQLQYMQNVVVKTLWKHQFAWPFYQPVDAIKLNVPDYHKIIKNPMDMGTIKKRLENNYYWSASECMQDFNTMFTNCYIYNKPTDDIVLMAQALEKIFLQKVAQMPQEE
Chain of BRD3 BD2 L/V (Q15059 306-416 L345V limits assumed): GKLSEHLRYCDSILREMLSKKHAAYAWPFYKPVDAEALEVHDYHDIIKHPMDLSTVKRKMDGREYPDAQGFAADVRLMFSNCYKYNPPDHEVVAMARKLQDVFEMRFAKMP
T3 sequence (Q15059 306-416): as the sequence (Q15059 306-416 L345V limits assumed) above, with V40L counted along it
Chain of BRD2 BD1 L/V (P25440 71-176 L110V limits assumed): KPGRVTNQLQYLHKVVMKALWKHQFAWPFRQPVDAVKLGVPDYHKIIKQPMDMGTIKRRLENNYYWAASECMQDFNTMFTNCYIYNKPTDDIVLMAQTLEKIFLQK
Chain of BRD2 BD2 L/V (P25440 344-455 L383V): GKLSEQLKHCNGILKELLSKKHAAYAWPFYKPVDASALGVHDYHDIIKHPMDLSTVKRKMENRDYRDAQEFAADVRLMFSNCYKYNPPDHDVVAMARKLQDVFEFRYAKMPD
Chain of BRD2 BD1 WT (P25440 71-176): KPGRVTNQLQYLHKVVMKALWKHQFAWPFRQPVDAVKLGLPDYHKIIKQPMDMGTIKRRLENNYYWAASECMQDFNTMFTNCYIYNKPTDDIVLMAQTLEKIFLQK
Chain of BRD3 BD1 WT (Q15059 24-144): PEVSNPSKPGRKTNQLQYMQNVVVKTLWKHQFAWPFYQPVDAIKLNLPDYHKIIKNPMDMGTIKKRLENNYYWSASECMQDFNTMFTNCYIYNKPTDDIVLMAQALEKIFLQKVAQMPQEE
Chain of BRD2 BD2 WT (P25440 344-455): as the sequence (P25440 344-455 L383V) above, with V40L counted along it

## CC[C@@H](C(=O)OC)[C@@H]1N=C(c2ccc(Cl)cc2)c2ccc(OC)cc2-n2c(C)nnc21 (racemic) [Compound 8]
[1]
  Kd: 270 nM
[1]; Kd BRD2 BD1 WT / Kd BRD3 BD1 L/V
  selectivity plot WT 2.1 vs L/V 3.1: > 230
[1]; Kd BRD2 BD2 WT / Kd BRD3 BD1 L/V
  selectivity plot WT 2.2 vs L/V 3.1: > 230
[1]; Kd BRD3 BD1 WT / Kd BRD3 BD1 L/V
  selectivity plot WT 3.1 vs L/V 3.1: 110
[1]; Kd BRD3 BD2 WT / Kd BRD3 BD1 L/V
  selectivity plot WT 3.2 vs L/V 3.1: > 230
[1]; Kd BRD4 BD1 WT / Kd BRD3 BD1 L/V
  selectivity plot WT 4.1 vs L/V 3.1: > 230
[1]; Kd BRD4 BD2 WT / Kd BRD3 BD1 L/V
  selectivity plot WT 4.2 vs L/V 3.1: > 230
[2]
  Kd: > 60000 nM
[3]; AlphaLISA pIC50 Value BRD4 BD1 L/V
  IC50: 126 nM
[3]; total compound concentration
  ΔpIC50 BRD4 BD1: 1.4
[3]; [18]
  IC50: 2000 nM
[4]
  Kd: > 60000 nM
[5]; AlphaLISA pIC50 Value BRD4 BD1 WT
  IC50: 1580 nM
[5]; [19]
  IC50: 50100 nM
[6]
  Kd: 340 nM
[6]; Kd BRD2 BD1 WT / Kd BRD2 BD1 L/V
  selectivity plot WT 2.1 vs L/V 2.1: > 180
[6]; Kd BRD2 BD2 WT / Kd BRD2 BD1 L/V
  selectivity plot WT 2.2 vs L/V 2.1: > 180
[6]; Kd BRD3 BD1 WT / Kd BRD2 BD1 L/V
  selectivity plot WT 3.1 vs L/V 2.1: 90
[6]; Kd BRD3 BD2 WT / Kd BRD2 BD1 L/V
  selectivity plot WT 3.2 vs L/V 2.1: > 180
[6]; Kd BRD4 BD1 WT / Kd BRD2 BD1 L/V
  selectivity plot WT 4.1 vs L/V 2.1: > 180
[6]; Kd BRD4 BD2 WT / Kd BRD2 BD1 L/V
  selectivity plot WT 4.2 vs L/V 2.1: > 180
[7]
  Kd: 29000 nM
[8]; L/V minus WT
  ITC pKd ± SD Δ: >2.2 ± 0.2
[8]; across the BET subfamily, ITC
  selectivity for the L/V mutant over wild-type: > 100 fold
[8]; mean and SD of all somatic bromodomains
  ITC pKd ± SD L/V: 6.4 ± 0.2
[9]
  Kd: 410 nM
[9]; Kd BRD2 BD1 WT / Kd BRD3 BD2 L/V
  selectivity plot WT 2.1 vs L/V 3.2: > 150
[9]; Kd BRD2 BD2 WT / Kd BRD3 BD2 L/V
  selectivity plot WT 2.2 vs L/V 3.2: > 150
[9]; Kd BRD3 BD1 WT / Kd BRD3 BD2 L/V
  selectivity plot WT 3.1 vs L/V 3.2: 70
[9]; Kd BRD3 BD2 WT / Kd BRD3 BD2 L/V
  selectivity plot WT 3.2 vs L/V 3.2: > 150
[9]; Kd BRD4 BD1 WT / Kd BRD3 BD2 L/V
  selectivity plot WT 4.1 vs L/V 3.2: > 150
[9]; Kd BRD4 BD2 WT / Kd BRD3 BD2 L/V
  selectivity plot WT 4.2 vs L/V 3.2: > 150
[10]
  Kd: 740 nM
[10]; Kd BRD2 BD1 WT / Kd BRD4 BD2 L/V
  selectivity plot WT 2.1 vs L/V 4.2: > 80
[10]; Kd BRD2 BD2 WT / Kd BRD4 BD2 L/V
  selectivity plot WT 2.2 vs L/V 4.2: > 80
[10]; Kd BRD3 BD1 WT / Kd BRD4 BD2 L/V
  selectivity plot WT 3.1 vs L/V 4.2: 40
[10]; Kd BRD3 BD2 WT / Kd BRD4 BD2 L/V
  selectivity plot WT 3.2 vs L/V 4.2: > 80
[10]; Kd BRD4 BD1 WT / Kd BRD4 BD2 L/V
  selectivity plot WT 4.1 vs L/V 4.2: > 80
[10]; Kd BRD4 BD2 WT / Kd BRD4 BD2 L/V
  selectivity plot WT 4.2 vs L/V 4.2: > 80
[11]; ITC stoichiometry, total compound concentration
  N BRD4 BD1 L/V: 1.42 ±0.02
[11]; [20]
  ΔH BRD4 BD1 L/V: -3.5 ± 0.1 kcal/mol
[11]; Kd BRD2 BD1 WT / Kd BRD4 BD1 L/V
  selectivity plot WT 2.1 vs L/V 4.1: > 110
[11]; Kd BRD2 BD2 WT / Kd BRD4 BD1 L/V
  selectivity plot WT 2.2 vs L/V 4.1: > 100
[11]; Kd BRD3 BD1 WT / Kd BRD4 BD1 L/V
  selectivity plot WT 3.1 vs L/V 4.1: 60
[11]; Kd BRD3 BD2 WT / Kd BRD4 BD1 L/V
  selectivity plot WT 3.2 vs L/V 4.1: > 110
[11]; [21]
  Kd: 840 ± 170 nM
[11]; ITC, 30°C
  Kd: 530 nM
[11]; Kd BRD4 BD1 WT / Kd BRD4 BD1 L/V
  selectivity plot WT 4.1 vs L/V 4.1: > 100
[11]; Kd BRD4 BD2 WT / Kd BRD4 BD1 L/V
  selectivity plot WT 4.2 vs L/V 4.1: > 100
[12]
  Kd: > 60000 nM
[13]
  Kd: > 60000 nM
[14]
  Kd: 300 nM
[14]; Kd BRD2 BD1 WT / Kd BRD2 BD2 L/V
  selectivity plot WT 2.1 vs L/V 2.2: > 200
[14]; Kd BRD2 BD2 WT / Kd BRD2 BD2 L/V
  selectivity plot WT 2.2 vs L/V 2.2: > 200
[14]; Kd BRD3 BD1 WT / Kd BRD2 BD2 L/V
  selectivity plot WT 3.1 vs L/V 2.2: 100
[14]; Kd BRD3 BD2 WT / Kd BRD2 BD2 L/V
  selectivity plot WT 3.2 vs L/V 2.2: > 200
[14]; Kd BRD4 BD1 WT / Kd BRD2 BD2 L/V
  selectivity plot WT 4.1 vs L/V 2.2: > 200
[14]; Kd BRD4 BD2 WT / Kd BRD2 BD2 L/V
  selectivity plot WT 4.2 vs L/V 2.2: > 200
[15]
  Kd: > 60000 nM
[16]
  IC50: 3980 nM

## COC(=O)[C@H](C)[C@@H]1N=C(c2ccc(Cl)cc2)c2ccc(OC)cc2-n2c(C)nnc21 [(2R,3S)-7]
[1]
  Kd: 90 nM
[2]
  Kd: 58000 ± 4000 nM
[2]; [20]
  ΔH BRD4 BD1 WT: -13.3 ± 0.5 kcal/mol
[3]; total compound concentration
  ΔpIC50 BRD4 BD1: 1.7
[3]; [18]
  IC50: 158 nM
[17]
  effect on NF-κB signalling: strongly impacted on NF-κB signalling
[4]
  Kd: 29000 nM
[5]; [19]
  IC50: 7940 nM
[6]
  Kd: 210 nM
[7]
  Kd: 7500 nM
[8]; L/V BET bromodomains
  potency: ~200 nM
[9]
  Kd: 310 nM
[10]
  Kd: 300 nM
[11]; [20]
  ΔH BRD4 BD1 L/V: -7.9 ± 0.1 kcal/mol
[11]; [21]
  Kd: 170 ± 20 nM
[12]
  Kd: 43000 nM
[13]
  Kd: > 60000 nM
[14]
  Kd: 200 nM
[15]
  Kd: 24000 nM
